In patent US20250205265A1, “ASPERULOSIDE AS AN AGENT FOR IMPROVING VASCULAR AND METABOLIC FUNCTION IN OBESITY: ROLE OF NRF2 ACTIVATION” (The Chinese University of Hong Kong, priority 2023, published 2025):
Entries after “also recorded” stand apart in the source; their conditions may differ.

Key:
ICAM-1 = assay: Real-time PCR of ICAM-1 in aortas of obese mice; format: in vivo
Method: (§1) After induction of obesity in C57BL/6 male mice fed with high fat diet for twelve weeks, they were treated daily with ASP (50 mg/kg) via oral gavage for seven weeks in vivo study. C57BL/6 mice aortae were used for ex vivo study and endothelial cells were used for in vitro study. Vascular function was determined by wire myograph. DHE and MitoSOX staining were used to detect ROS levels. QPCR, aortic en-face immunofluorescence staining, and Western blotting were used to analyze mRNA and protein expressions. Small interfering (si)RNA of Nrf2 and HO-1, inhibitors of Nrf2 (ML385, Cat. No.: HY-100523) and HO-1 (OB-24, HY-118487) were used to elucidate the mechanistic pathway of ASP's action.
(§2) After induction of obesity in C57BL/6 male mice fed with the high-fat diet for twelve weeks, they were treated daily with ASP (50 mg/kg) via oral gavage for seven weeks in vivo study. C57BL/6 mice aortae were used for ex vivo studies. Endothelial cells, HepG2 and primary adipocytes were used for in vitro studies. Vascular function was determined by wire myograph. H&E staining was employed for histological examination. Oil Red O staining was used to determine lipid droplets in tissues and cells. DHE and MitoSOX staining were used to detect ROS levels. […] ARE binding activity was determined by Dual luciferase reporter assay. […]

HO-1 [1] = assay: Real-time PCR of HO-1 in obese mice aortas; format: in vivo
Method: as §1, §2

HO-1 [2] = assay: Aortic en-face immunofluorescence staining of HO-1; set-up: species or system mice
Method: as §1
(§3) After induction of obesity in C57BL/6 male mice fed with the high-fat diet for twelve weeks, they were treated daily with ASP (50 mg/kg) via oral gavage for seven weeks in vivo study. C57BL/6 mice aortae were used for ex vivo studies. Endothelial cells, HepG2 and primary adipocytes were used for in vitro studies. Vascular function was determined by wire myograph. H&E staining was employed for histological examination. Oil Red O staining was used to determine lipid droplets in tissues and cells. DHE and MitoSOX staining were used to detect ROS levels. QPCR, aortic en-face immunofluorescence staining, and Western blotting were used to analyze mRNA and protein expressions. ARE binding activity was determined by Dual luciferase reporter assay. Small interfering (si)RNA of Nrf2 and HO-1, inhibitors of Nrf2 (ML385, Cat. No.: HY-100523) and HO-1 (OB-24, HY-118487) were used to elucidate the mechanistic pathway of ASP's action.

VCAM-1 and ICAM-1 = assay: Endothelial activation (VCAM-1 and ICAM-1) in endothelial cells; format: cell-based
Method: as §1, §2

HO-1 [3] = assay: HO-1 expression in endothelial cells (western blotting, real-time PCR); format: cell-based
Method: as §1, §3

Nrf2 [4] = assay: Nrf2 nuclear translocation in endothelial cells; format: cell-based
Method: as §1, §3

FAS, ACC2, SREBP1C, HSL = assay: Real-time PCR of lipid metabolism genes in PA-treated HepG2 cells; format: cell-based
Method: as §3

obese mice livers [5] = assay: ATP levels in obese mice livers; format: in vivo
Method: as §3

SDHC = assay: Real-time PCR of SDHC in PA-treated HepG2 cells; format: cell-based; conditions: PA-treated HepG2 cells when Nrf2 is inhibited
Method: as §3

obese mice livers [6] = assay: DHE staining of obese mice livers; format: in vivo
Method: as §3

Nrf2 [7] = assay: Nrf2 nuclear translocation and protein level in obese mice livers; format: in vivo
Method: as §3

[8] = test system: Ho-1, Sirt1, Sirt3, Sirt6 and Sod2; assay: Real-time PCR of Nrf2 downstream genes in obese mice livers; format: in vivo
Method: as §3

[9] = obese mice aortae, ASP 50 mg/kg oral gavage daily for seven weeks
[10] = endothelial cells under basal conditions

For Asperuloside, the “ICAM-1 mRNA expression” value (ICAM-1; aortas of obese mice, real-time PCR) was “decreases elevated expression of VCAM-1 and ICAM-1 mRNA”, the “reduction of ICAM-1 expression” value (ICAM-1; [9]) was “about 2 fold” and the “increase of HO-1 expression” value (HO-1 [1]; [9]) was “about 1.5 fold”. The “HO-1 mRNA expression level” value (HO-1 [1]; obese mice aortas, real-time PCR) was “increases mRNA expression level of Nrf2 (FIG. 1G) and HO-1”, the “HO-1 expression (en-face immunofluorescence)” value (HO-1 [2]; EC-specific knockdown of Nrf2) was “EC-specific knockdown of Nrf2 abolishes the upregulation of HO-1 by ASP treatment” and the “HO-1 expression (en-face immunofluorescence)” value (HO-1 [2]; OB-24-treated aortas) was “fails to increase HO-1 expression”. The “endothelial HO-1 expression (en-face immunofluorescence)” value (HO-1 [2]; inhibition of Nrf2/ARE binding (ML385)) was “inhibition of Nrf2/ARE binding eliminates the endothelial upregulation of HO-1 by ASP treatment”, the endothelial activation (VCAM-1 and ICAM-1; HO-1-silencing (HO-1-siRNA transfected) endothelial cells) was “fails to decrease ROS level (FIG. 2E) or inhibit endothelial activation; also recorded: failed to prevent endothelial dysfunction in HO-1 inhibited aortae (FIGS. 2A-2D) and HO-1-siRNA transfected endothelial cells” and the “overexpression of VCAM-1 and ICAM-1” value (VCAM-1 and ICAM-1; endothelial cells) was “inhibits overexpression of VCAM-1 and ICAM-1”. For the same substance, the “HO-1 mRNA” value (HO-1 [3]; IL-1β, ML385-treated cells) was “fails to restore IL-1β-mediated downregulation of HO-1 protein (FIG. 4B) and mRNA”, the HO-1 protein (HO-1 [3]; IL-1β, ML385-treated cells) was “fails to restore IL-1β-mediated downregulation of HO-1 protein” and the “HO-1 upregulation (western blotting)” value (HO-1 [3]; Nrf2-silenced cells) was “ASP-induced upregulation of HO-1 is eliminated; also recorded: Nrf2 knockdown attenuated HO-1 upregulation by ASP”. The “HO-1 expression (western blotting)” value (HO-1 [3]; [10]) was “dose-dependently upregulated HO-1 expression”, the “HO-1 mRNA (real-time PCR)” value (HO-1 [3]; [10]) was “dose-dependently increases HO-1 mRNA” and the “Nrf2 nuclear expression (western blotting)” value (Nrf2 [4]; 40 μmol/L ASP, endothelial cells under basal conditions) was “increases Nrf2 nuclear expressions”. For the same substance, the “Nrf2 nuclear translocation (western blotting)” value (Nrf2 [4]; endothelial cells) was “dose-dependently stimulates Nrf2 nuclear translocation; also recorded: increased nuclear Nrf2”, the “mRNA levels of FAS, ACC2 and SREBP1C” value (FAS, ACC2, SREBP1C, HSL; Nrf2-inhibited HepG2 cells) was “fails to decrease its expression levels” and the “PA-stimulated overexpression of mRNA levels of FAS, ACC2 and SREBP1C” value (FAS, ACC2, SREBP1C, HSL; PA-treated HepG2 cells) was “inhibited by ASP treatment”. The “HSL mRNA expression” value (FAS, ACC2, SREBP1C, HSL; palmitic acid, Nrf2-inhibited HepG2 cells) was “fails to restore palmitic acid-decreased HSL mRNA expression”, the ATP levels (obese mice livers [5]) was “increases ATP levels” and the “mRNA expression levels of SDHC” value (SDHC) was “fails to upregulate the mRNA expression levels of SDHC”. The “oxidative stress (DHE staining)” value (obese mice livers [6]) was “suppresses oxidative stress in obese mice livers”, the “Nrf2 nuclear translocation (immunofluorescence)” value (Nrf2 [7]; obese mice livers) was “stimulates Nrf2 nuclear translocation in obese mice livers” and the “Nrf2 protein level (western blot)” value (Nrf2 [7]; obese mice livers) was “increased”. The “increase of protein level of Nrf2 in the liver” value (Nrf2 [7]; worded as embodiment, cf. FIG. 13B) was “about 3 fold”, the “gene expressions of Ho-1, Sirt1, Sirt3, Sirt6 and Sod2” value ([8]; obese mice livers) was “upregulates gene expressions of Ho-1, Sirt1, Sirt3, Sirt6 and Sod2” and the “increase of HO-1 mRNA expression in the liver” value ([8]; worded as embodiment, cf. FIG. 13C) was “about 2.5 fold”.
